Target: T1, full-length PTP1B in SF9 lysate (Homo sapiens, UniProt P18031)
T1 construct: Infected SF9 cell lysate expressing full-length PTP1B (as a flag fusion); made in house; host or cells: SF9 insect cells (infected), used as crude lysate
T1 sequence (P18031 1-435): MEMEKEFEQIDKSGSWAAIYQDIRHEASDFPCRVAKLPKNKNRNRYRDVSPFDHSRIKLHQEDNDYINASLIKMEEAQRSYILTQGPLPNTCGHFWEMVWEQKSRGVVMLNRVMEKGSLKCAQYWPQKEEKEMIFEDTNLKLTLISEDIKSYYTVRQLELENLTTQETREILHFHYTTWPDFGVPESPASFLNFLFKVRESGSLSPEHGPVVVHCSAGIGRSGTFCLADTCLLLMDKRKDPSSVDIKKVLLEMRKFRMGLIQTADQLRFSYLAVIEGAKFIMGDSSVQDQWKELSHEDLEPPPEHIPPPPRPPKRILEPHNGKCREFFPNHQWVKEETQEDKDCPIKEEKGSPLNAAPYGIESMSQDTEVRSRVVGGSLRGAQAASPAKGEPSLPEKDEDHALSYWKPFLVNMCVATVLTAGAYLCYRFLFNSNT
Assay: Photolabeling of SF9 cell lysate overexpressing PTP1B
Type: binding
Details: PTP1B 1% wt/wt protein
Excerpt: Protein tyrosine phosphatases used in this study were expressed and purified using published procedures, as follows: (a) Flag-PTP1B (residues 1-320 as a flag fusion), Huyer et al. (29). (b) Flag-TCPTP (residues 1-281 as a flag fusion), Asante-Appiah et al. (30). (c) Flag-CD45 (residues 556-1268 as a flag fusion), Wang et al. (31). (d) Mutant C215S-PTP1B (residues 1-320 as a gst fusion), Skorey et al. (28). (e) Infected SF9 cell lysate expressing full-length PTP1B (as a flag fusion), Cromlish et al. (25). For studies using H2O2-inactivated Flag-PTP1B, 100 μl of 2 μg/ml PTP1B was incubated with 100 μl of 1 mM or 20 mM H2O2 for 15 min to obtain 50% or 100% inactivated enzyme respectively as determined by the enzyme kinetic assay.
All photolabeling experiments with purified enzymes or SF9 cell lysate overexpressing PTP1B were conducted in 96-well polystyrene plates in 50 μl BisTris buffer (50 mM BisTris pH 6.3, 2 mM EDTA, 1 mM DMH) containing enzyme (in BisTris buffer with 20% glycerol, 0.01% Triton X-100) or lysate and Example 9 (in water) or Example 1 (in water) at various concentrations and shaken for 1 min at room temperature. […] Autoradiography of the dried, coommassie-stained gel was done using Phosphorimaging (Molecular Devices) or by x-ray film (BioMax MS with intensifier screen, Kodak) and quantified by densitometry. […]

labeling of SF9 overexpressed PTP1B: labeled SF9 overexpressed PTP1B
Compound: NC(=O)[C@H](Cc1ccc(C(F)(F)P(=O)(O)O)cc1)NC(=O)[C@H](Cc1ccc(C(F)(F)P(=O)(O)O)cc1)NC(=O)c1cc(I)cc(C2(C(F)(F)F)N=N2)c1 [Example 9, 4-(Difluoro(phosphono)methyl)-N-(3-iodo-5-(3-(trifluoromethyl)-3H-diaziren-3-yl)benzoyl)-L-phenylalanyl-4-(difluoro(phosphono)methyl)-L-phenylalaninamide]

Reference: patent US20070161542A1, “Ptb1b photoprobes” (priority 2003, published 2007)
